Assays:
Assay type in all cases: in vivo
[1] = tested on: field corn (Zea mays L., var. Dekalb 535, CORN); test: Post-emerge test, crop safety; settings: post-emerge, 14 days after application, rating scale 0-100
Procedure, shortened: (§1)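 Rating: 0–100 visual injury, 14 DAA. Application: acetone, 187 l/ha, 15–1000 g ai/ha, flat-fan track sprayer with nozzle 40–45 cm above soil or canopy. Post-emerge runs used 0.25% v/v surfactant on 2–3 leaf plants.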

[2] = tested on: upland rice (Oryza sp., var. Tebonnet, RICE); test: Post-emerge test, crop safety; settings: post-emerge, 14 days after application, rating scale 0-100
Procedure, shortened: as §1

[3] = tested on: field corn (Zea mays L., var. Dekalb 535, CORN); test: Pre-emerge test, crop safety; settings: pre-emerge; for Pre-emerge Herbicidal Activity CORN: crop damage, phytotoxicity rating 0-100 at 14 days after application; for phytotoxicity rating CORN: 14 days after application, rating scale 0-100
Procedure, shortened: (§2)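 Herbicidal damage is scored 0 (none) to 100 (complete plant death) two weeks after a simulated field spray. Rates span 15–1000 g ai/ha, delivered in acetone at 187 l/ha. For post-emergence treatments, plants have 2–3 leaves and the spray carries 0.25% v/v non-ionic surfactant.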

[4] = tested on: upland rice (Oryza sp., var. Tebonnet, RICE); test: Pre-emerge test, crop safety; settings: pre-emerge; for Pre-emerge Herbicidal Activity RICE: crop damage, phytotoxicity rating 0-100 at 14 days after application; for phytotoxicity rating RICE: 14 days after application, rating scale 0-100
Procedure, shortened: as §2

[5] = tested on: lambsquarters (Chenopodium album, CHEAL); test: Post-emerge test, greenhouse herbicide activity screening; settings: post-emerge, 14 days after application, rating scale 0-100
Procedure, shortened: (§3)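 Fourteen days after spraying, crop and weed injury was graded visually from 0, no effect, to 100, every plant dead. Test substances were dissolved in acetone and applied at 15–1000 g ai/ha with a flat-fan nozzle. Application was either pre-emergence, one day after sowing, or post-emergence at the 2–3 leaf stage.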

[6] = tested on: barnyardgrass (Echinochloa crus-galli, ECHCG); test: as above; settings: post-emerge, 14 days after application, rating scale 0-100
Procedure, shortened: as §3

[7] = tested on: sicklepod (Cassia obtusifolia, CASOB); test: as above; settings: post-emerge, 14 days after application, rating scale 0-100
Procedure, shortened: as §3

[8] = tested on: redroot pigweed (Amaranthus retroflexus, AMARE); test: as above; settings: post-emerge, 14 days after application
Procedure, shortened: as §3

[9] = tested on: johnsongrass (Sorghum halepense, SORHA); test: as above; settings: post-emerge, 14 days after application, rating scale 0-100
Procedure, shortened: as §3

[10] = tested on: green foxtail (Setaria viridis, SETVI); test: as above; settings: post-emerge, 14 days after application, rating scale 0-100
Procedure, shortened: as §3

[11] = tested on: velvetleaf (Abutilon theophrasti, ABUTH); test: as above; settings: post-emerge, 14 days after application, rating scale 0-100
Procedure, shortened: as §3

[12] = tested on: large crabgrass (Digitaria sanguinalis, DIGSA); test: as above; settings: post-emerge, 14 days after application, rating scale 0-100
Procedure, shortened: as §3

[13] = tested on: ivyleaf morningglory (Ipomoea hederacea, IPOHE); test: as above; settings: post-emerge, 14 days after application, rating scale 0-100
Procedure, shortened: as §3

[14] = tested on: redroot pigweed (Amaranthus retroflexus, AMARE); test: Pre-emerge test, greenhouse herbicide activity screening; settings: pre-emerge; for Pre-emerge Herbicidal Activity AMARE: phytotoxicity rating 0-100 at 14 days after application; for phytotoxicity rating AMARE: 14 days after application, rating scale 0-100
Procedure, shortened: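 Plants grown in 10 cm pots of sandy loam mix received acetone-dissolved compounds through a moving flat-fan nozzle. Doses ranged from 15 to 1000 g ai/ha. Pre-emerge pots were seeded one day earlier, post-emerge pots 8–21 days earlier. Fourteen days on, each pot was graded 0–100 for damage.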

[15] = tested on: lambsquarters (Chenopodium album, CHEAL); test: as above; settings: pre-emerge; for Pre-emerge Herbicidal Activity CHEAL: phytotoxicity rating 0-100 at 14 days after application; for phytotoxicity rating CHEAL: 14 days after application, rating scale 0-100
Procedure, shortened: (§4)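 Compounds in acetone were track-sprayed at 15–1000 g ai/ha: pre-emergence onto soil sown the previous day, then top-watered to incorporate and later bottom-watered; post-emergence onto 2–3 leaf plants with 0.25% v/v surfactant, bottom-watered only. Ratings on a 0–100 phytotoxicity scale were taken at day 14.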

[16] = tested on: barnyardgrass (Echinochloa crus-galli, ECHCG); test: as above; settings: pre-emerge; for Pre-emerge Herbicidal Activity ECHCG: phytotoxicity rating 0-100 at 14 days after application; for phytotoxicity rating ECHCG: 14 days after application, rating scale 0-100
Procedure, shortened: as §4

[17] = tested on: sicklepod (Cassia obtusifolia, CASOB); test: as above; settings: pre-emerge; for Pre-emerge Herbicidal Activity CASOB: phytotoxicity rating 0-100 at 14 days after application; for phytotoxicity rating CASOB: 14 days after application, rating scale 0-100
Procedure, shortened: as §4

[18] = tested on: johnsongrass (Sorghum halepense, SORHA); test: as above; settings: pre-emerge; for Pre-emerge Herbicidal Activity SORHA: phytotoxicity rating 0-100 at 14 days after application; for phytotoxicity rating SORHA: 14 days after application, rating scale 0-100
Procedure, shortened: as §4

[19] = tested on: green foxtail (Setaria viridis, SETVI); test: as above; settings: pre-emerge; for Pre-emerge Herbicidal Activity SETVI: phytotoxicity rating 0-100 at 14 days after application; for phytotoxicity rating SETVI: 14 days after application, rating scale 0-100
Procedure, shortened: as §4

[20] = tested on: velvetleaf (Abutilon theophrasti, ABUTH); test: as above; settings: pre-emerge; for Pre-emerge Herbicidal Activity ABUTH: phytotoxicity rating 0-100 at 14 days after application; for phytotoxicity rating ABUTH: 14 days after application, rating scale 0-100
Procedure, shortened: as §4

[21] = tested on: large crabgrass (Digitaria sanguinalis, DIGSA); test: as above; settings: pre-emerge; for Pre-emerge Herbicidal Activity DIGSA: phytotoxicity rating 0-100 at 14 days after application; for phytotoxicity rating DIGSA: 14 days after application, rating scale 0-100
Procedure, shortened: as §4

[22] = tested on: ivyleaf morningglory (Ipomoea hederacea, IPOHE); test: as above; settings: pre-emerge; for Pre-emerge Herbicidal Activity IPOHE: phytotoxicity rating 0-100 at 14 days after application; for phytotoxicity rating IPOHE: 14 days after application, rating scale 0-100
Procedure, shortened: as §4

[23] = 63 g ai/ha, rating scale 0-100 (0 no damage, 100 complete death)
[24] = 250 g ai/ha, rating scale 0-100

## Cc1cccc(C)c1OC(=O)Nc1c(C)c(Cl)cc(F)c1-n1c(=O)cc(C(F)(F)F)n(C)c1=O [4-55]
[1]; 63 g ai/ha
  phytotoxicity rating CORN (crop damage): 10
[1]; 250 g ai/ha
  phytotoxicity rating CORN (crop damage): 5
[2]; 63 g ai/ha
  phytotoxicity rating RICE (crop damage): 0
[2]; 250 g ai/ha
  phytotoxicity rating RICE (crop damage): 35
[3]; rate 63 g ai/ha
  Pre-emerge Herbicidal Activity CORN: 0
[3]; rate 250 g ai/ha
  Pre-emerge Herbicidal Activity CORN: 30
[4]; rate 63 g ai/ha
  Pre-emerge Herbicidal Activity RICE: 0
[4]; rate 250 g ai/ha
  Pre-emerge Herbicidal Activity RICE: 60
[5]; 63 g ai/ha
  phytotoxicity rating CHEAL: 50
[5]; 250 g ai/ha
  phytotoxicity rating CHEAL: 90
[6]; 63 g ai/ha
  phytotoxicity rating ECHCG: 0
[6]; 250 g ai/ha
  phytotoxicity rating ECHCG: 20
[7]; 63 g ai/ha
  phytotoxicity rating CASOB: 20
[7]; 250 g ai/ha
  phytotoxicity rating CASOB: 40
[8]; [23]
  phytotoxicity rating AMARE: 50
[8]; [24]
  phytotoxicity rating AMARE: 80
[9]; 63 g ai/ha
  phytotoxicity rating SORHA: 0
[9]; 250 g ai/ha
  phytotoxicity rating SORHA: 10
[10]; 63 g ai/ha
  phytotoxicity rating SETVI: 10
[10]; 250 g ai/ha
  phytotoxicity rating SETVI: 40
[11]; 63 g ai/ha
  phytotoxicity rating ABUTH: 100
[11]; 250 g ai/ha
  phytotoxicity rating ABUTH: 100
[12]; 63 g ai/ha
  phytotoxicity rating DIGSA: 0
[12]; 250 g ai/ha
  phytotoxicity rating DIGSA: 10
[13]; 63 g ai/ha
  phytotoxicity rating IPOHE: 40
[13]; 250 g ai/ha
  phytotoxicity rating IPOHE: 85
[14]; rate 63 g ai/ha
  Pre-emerge Herbicidal Activity AMARE: 30
[14]; rate 250 g ai/ha
  Pre-emerge Herbicidal Activity AMARE: 90
[15]; rate 63 g ai/ha
  Pre-emerge Herbicidal Activity CHEAL: 90
[15]; rate 250 g ai/ha
  Pre-emerge Herbicidal Activity CHEAL: 100
[16]; rate 63 g ai/ha
  Pre-emerge Herbicidal Activity ECHCG: 0
[16]; rate 250 g ai/ha
  Pre-emerge Herbicidal Activity ECHCG: 30
[17]; rate 63 g ai/ha
  Pre-emerge Herbicidal Activity CASOB: 0
[17]; rate 250 g ai/ha
  Pre-emerge Herbicidal Activity CASOB: 30
[18]; rate 63 g ai/ha
  Pre-emerge Herbicidal Activity SORHA: 0
[18]; rate 250 g ai/ha
  Pre-emerge Herbicidal Activity SORHA: 60
[19]; rate 63 g ai/ha
  Pre-emerge Herbicidal Activity SETVI: 40
[19]; rate 250 g ai/ha
  Pre-emerge Herbicidal Activity SETVI: 90
[20]; rate 63 g ai/ha
  Pre-emerge Herbicidal Activity ABUTH: 80
[20]; rate 250 g ai/ha
  Pre-emerge Herbicidal Activity ABUTH: 100
[21]; rate 63 g ai/ha
  Pre-emerge Herbicidal Activity DIGSA: 0
[21]; rate 250 g ai/ha
  Pre-emerge Herbicidal Activity DIGSA: 70
[22]; rate 63 g ai/ha
  Pre-emerge Herbicidal Activity IPOHE: 20
[22]; rate 250 g ai/ha
  Pre-emerge Herbicidal Activity IPOHE: 70

## COc1c(Cl)cc(F)c(-n2c(=O)cc(C(F)(F)F)n(C)c2=O)c1NN=C1CCc2ccccc2C1 [15-18]
[1]; 63 g ai/ha
  Post-emerge Herbicidal Activity CORN (crop damage rating): 20
[1]; 250 g ai/ha
  Post-emerge Herbicidal Activity CORN (crop damage rating): 80
[2]; 63 g ai/ha
  Post-emerge Herbicidal Activity RICE (crop damage rating): 30
[2]; 250 g ai/ha
  Post-emerge Herbicidal Activity RICE (crop damage rating): 85
[3]; 63 g ai/ha
  phytotoxicity rating CORN: 80
[3]; 250 g ai/ha
  phytotoxicity rating CORN: 95
[4]; 63 g ai/ha
  phytotoxicity rating RICE: 90
[4]; 250 g ai/ha
  phytotoxicity rating RICE: 99
[5]; 63 g ai/ha
  Post-emerge Herbicidal Activity CHEAL (phytotoxicity rating): 100
[5]; 250 g ai/ha
  Post-emerge Herbicidal Activity CHEAL (phytotoxicity rating): 100
[6]; 63 g ai/ha
  Post-emerge Herbicidal Activity ECHCG (phytotoxicity rating): 10
[6]; 250 g ai/ha
  Post-emerge Herbicidal Activity ECHCG (phytotoxicity rating): 95
[7]; 63 g ai/ha
  Post-emerge Herbicidal Activity CASOB (phytotoxicity rating): 40
[7]; 250 g ai/ha
  Post-emerge Herbicidal Activity CASOB (phytotoxicity rating): 100
[8]; [23]
  Post-emerge Herbicidal Activity AMARE (phytotoxicity rating): 100
[8]; [24]
  Post-emerge Herbicidal Activity AMARE (phytotoxicity rating): 100
[9]; 63 g ai/ha
  Post-emerge Herbicidal Activity SORHA (phytotoxicity rating): 0
[9]; 250 g ai/ha
  Post-emerge Herbicidal Activity SORHA (phytotoxicity rating): 99
[10]; 63 g ai/ha
  Post-emerge Herbicidal Activity SETVI (phytotoxicity rating): 20
[10]; 250 g ai/ha
  Post-emerge Herbicidal Activity SETVI (phytotoxicity rating): 80
[11]; 63 g ai/ha
  Post-emerge Herbicidal Activity ABUTH (phytotoxicity rating): 100
[11]; 250 g ai/ha
  Post-emerge Herbicidal Activity ABUTH (phytotoxicity rating): 100
[12]; 63 g ai/ha
  Post-emerge Herbicidal Activity DIGSA (phytotoxicity rating): 10
[12]; 250 g ai/ha
  Post-emerge Herbicidal Activity DIGSA (phytotoxicity rating): 100
[13]; 63 g ai/ha
  Post-emerge Herbicidal Activity IPOHE (phytotoxicity rating): 90
[13]; 250 g ai/ha
  Post-emerge Herbicidal Activity IPOHE (phytotoxicity rating): 100
[14]; 63 g ai/ha
  phytotoxicity rating AMARE: 100
[14]; 250 g ai/ha
  phytotoxicity rating AMARE: 100
[15]; 63 g ai/ha
  phytotoxicity rating CHEAL: 100
[15]; 250 g ai/ha
  phytotoxicity rating CHEAL: 100
[16]; 63 g ai/ha
  phytotoxicity rating ECHCG: 75
[16]; 250 g ai/ha
  phytotoxicity rating ECHCG: 100
[17]; 63 g ai/ha
  phytotoxicity rating CASOB: 100
[17]; 250 g ai/ha
  phytotoxicity rating CASOB: 100
[18]; 63 g ai/ha
  phytotoxicity rating SORHA: 75
[18]; 250 g ai/ha
  phytotoxicity rating SORHA: 100
[19]; 63 g ai/ha
  phytotoxicity rating SETVI: 95
[19]; 250 g ai/ha
  phytotoxicity rating SETVI: 100
[20]; 63 g ai/ha
  phytotoxicity rating ABUTH: 100
[20]; 250 g ai/ha
  phytotoxicity rating ABUTH: 100
[21]; 63 g ai/ha
  phytotoxicity rating DIGSA: 100
[21]; 250 g ai/ha
  phytotoxicity rating DIGSA: 100
[22]; 63 g ai/ha
  phytotoxicity rating IPOHE: 90
[22]; 250 g ai/ha
  phytotoxicity rating IPOHE: 100

— US6355799B1, “Substituted benzene compounds, process for their preparation, and herbicidal and defoliant compositions containing them” (ISK Americas Incorporated, priority 1997, dated 2002)
